Source: PubChem BioAssay (NCI)
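Growth conditions: 96-well plates. Treatment: test compound, 48 hours, 5 concentrations. Analysis: linear interpolation between bracketing concentrations; unreached endpoints set to highest concentration. Here, GI50 denotes the concentration required for 50% inhibition of growth. At the TGI there is no net growth.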

Columns and labels:
Assay in all cases: inhibition of tumour cell growth, NCI panel, 48 h
RPMI-8226 leukemia = system: RPMI-8226 leukemia
UACC-257 melanoma = system: UACC-257 melanoma
HCT-116 colon = system: HCT-116 colon
M14 melanoma = system: M14 melanoma
OVCAR-5 ovarian = system: OVCAR-5 ovarian
SK-OV-3 ovarian = system: SK-OV-3 ovarian
RXF 393 renal = system: RXF 393 renal
NCI-H460 lung = system: NCI-H460 lung
KM12 colon = system: KM12 colon
SR leukemia = system: SR leukemia

| SMILES | TGI (RPMI-8226 leukemia) [µM] | TGI (UACC-257 melanoma) [µM] | TGI (HCT-116 colon) [µM] | TGI (M14 melanoma) [µM] | TGI (OVCAR-5 ovarian) [µM] | TGI (SK-OV-3 ovarian) [µM] | TGI (RXF 393 renal) [µM] | TGI (NCI-H460 lung) [µM] | TGI (KM12 colon) [µM] | GI50 (RPMI-8226 leukemia) [µM] | GI50 (HCT-116 colon) [µM] | GI50 (M14 melanoma) [µM] | GI50 (OVCAR-5 ovarian) [µM] | GI50 (SK-OV-3 ovarian) [µM] | GI50 (NCI-H460 lung) [µM] | GI50 (KM12 colon) [µM] | GI50 (SR leukemia) [µM] | TGI (SR leukemia) [µM] | GI50 (RXF 393 renal) [µM] | GI50 (UACC-257 melanoma) [µM] |
| --- | --- | --- | --- | --- | --- | --- | --- | --- | --- | --- | --- | --- | --- | --- | --- | --- | --- | --- | --- | --- |
| Nc1nc(-c2ccc(Cl)c([N+](=O)[O-])c2)cs1 | > 100 | > 100 | > 100 | > 100 | > 100 | > 100 | 90.1 | > 100 | > 100 |  |  |  |  |  |  |  |  |  |  |  |
| O=C(N/C(=C\c1ccc([N+](=O)[O-])cc1)c1nc2ccccc2[nH]1)c1ccccc1 | > 100 | > 100 | > 100 | > 100 | > 100 |  | > 100 | > 100 | > 100 |  |  |  |  |  |  |  |  |  |  |  |
| O=C(O)c1cccc(COc2ccc([N+](=O)[O-])cc2Cl)c1 | > 100 |  | > 100 | > 100 | > 100 | > 100 |  | > 100 | > 100 | > 100 | > 100 | > 100 | > 100 | > 100 | > 100 | > 100 |  |  |  |  |
| COc1ccc(-c2nn(-c3cccc(Cl)c3)cc2-c2cc(-c3ccccc3)[nH]c(=O)c2C#N)cc1 | > 50 |  | 32.8 | 34.6 | > 50 | 2.29 | 2.18 | > 50 | > 50 | 45.6 | 1.71 | 2.27 | 32.3 | 0.922 | 2.35 | > 50 | 7.74 | 15.8 | 0.897 |  |
| c1coc(-c2c3ccc(=[N+]4CCCCC4)cc-3oc3cc(N4CCCCC4)ccc23)c1 |  | 0.191 |  |  | 1.12 | 0.819 | 0.228 |  |  |  |  |  | 0.0946 | 0.246 |  |  |  |  | 0.0437 | 0.0432 |
| Cc1ccc(C)c(N2C/C(=N\NC(=O)CC#N)C(c3nc4ccccc4s3)C(=O)C2=O)c1 (stereo not given) |  | > 100 | > 100 | > 100 |  | > 100 | > 100 | > 100 | > 100 |  |  |  |  |  |  |  |  | > 100 |  |  |
| CO[C@H]1Nc2c(ccc(C)c2O)C(=O)N2C=C(/C=C/C(N)=O)C[C@@H]12 | 8.51 | 0.134 |  | 0.0406 | 5.45 | 3.72 | 0.233 | 31.1 | 7.2 |  |  |  |  |  |  |  |  | > 100 |  |  |
| CC1(C)CN=C(NN=C(/C=C/c2ccc(C(F)(F)F)cc2)/C=C/c2ccc(C(F)(F)F)cc2)NC1 | 2.3 | 2.96 | 2.75 | 3.5 | 2.68 | 3.16 | 2.73 | 3.2 | 2.45 | 0.466 | 1.32 | 1.78 | 1.32 | 1.77 | 1.47 | 1.21 |  |  | 1.33 | 1.56 |
| O=C(Cc1nc2c3c(ccc2[nH]c1=O)C(=O)c1ccccc1C3=O)C(=O)Nc1ccccc1[N+](=O)[O-] | 41.1 | 37 | 65.4 | 34 | 41.1 | > 100 |  | 97.6 | 43 |  |  |  |  |  |  |  |  | 51.1 |  |  |
| O=C1CCCN1c1ccccc1I(=O)=O | > 100 | > 100 |  |  | > 100 | > 100 | > 100 | > 100 | > 100 | > 100 |  |  | > 100 | > 100 | > 100 | > 100 | 95.6 | > 100 | > 100 | > 100 |
| Cc1cccc(C2=C/C(=C(\SS/C(C(=O)c3ccc(OCC(=O)O)c(Cl)c3Cl)=C3\C=C(c4cccc(C)c4)SS3)C(=O)c3ccc(OCC(=O)O)c(Cl)c3Cl)SS2)c1 | 41.4 | > 77.3 | > 53.8 | 51.3 | > 86.2 | > 100 |  | > 68.1 | 52.9 |  |  |  |  |  |  |  |  |  |  |  |
| COc1ccc(C(=O)c2cc(OC)c(OC)c(OC)c2)cc1OC | > 100 | > 100 | > 100 | > 100 | > 100 |  | 6.3 | > 100 | 28.9 |  |  |  |  |  |  |  |  | > 100 |  |  |
| COC(c1ccc(C(C)(C)C)cc1)(c1ccc(C(C)(C)C)cc1)c1ccc(C(C)(C)C)cc1 | > 100 |  | > 100 | > 100 | > 100 |  |  | > 100 | > 100 |  |  |  |  |  |  |  |  | > 100 |  |  |
| Cc1cc2c(c(C(N)=O)c1C)-c1ccccc1C2=O | > 100 | > 100 | > 100 | > 100 | > 100 | > 100 | > 100 | > 100 | > 100 |  |  |  |  |  |  |  |  |  |  |  |
| CCCC/C(=C\C1=C(C)C(=O)C(OC)=C(OC)C1=O)C(=O)O | > 100 | > 100 | > 100 | > 100 | > 100 | > 100 | > 100 | > 100 | > 100 | > 100 | > 100 | > 100 | > 100 | > 100 | > 100 | > 100 |  |  | > 100 | > 100 |
| CCOC(=O)NC(=O)c1cn(C2CCCCC2)c(=O)[nH]c1=O | > 100 | > 100 | > 100 | > 100 | > 100 | > 100 |  | > 100 | > 100 |  |  |  |  |  |  |  |  |  |  |  |
| COc1ccc(C(CC(=O)c2ccc3c(c2)OCO3)c2c(O)c3ccccc3oc2=O)cc1OC (stereo not given) | > 100 | > 100 | > 100 |  | > 100 | > 100 | > 100 | > 100 | > 100 |  |  |  |  |  |  |  |  |  |  |  |
| COC(=O)c1cc2c(o1)-c1nccc3c1c(nc1ccccc13)C2=O | 18 | 15.3 | 5.95 | 10.2 | 34.3 | 39.8 |  | 35 | 16.7 | 2.03 | 1.92 | 2.31 | 17.3 | 10.7 | 12.2 | 3.77 | 0.519 | 2.51 |  | 3.68 |
| CC1=NN(C(=O)CC(=O)Nc2ccccc2F)C(=O)C1N=Nc1ccccc1[N+](=O)[O-] (stereo not given) | > 100 | > 100 | > 100 | > 100 | > 100 | > 100 | > 100 |  | > 100 |  |  |  |  |  |  |  |  |  |  |  |
